Experiment [1] deals with HeLa. Kind of experiment: Cytotoxicity against human HeLa cells assessed as decrease in cell viability after 48 hrs by MTT assay. The experiment is classed as functional, cell-based. (Formazan colour is commonly taken as a measure of viable cells.)
Experiment [2] relates to HeLa. Kind of experiment: Cytotoxicity against human HeLa cells assessed as decrease in cell viability at 10 uM after 48 hrs by MTT assay relative to control. The experiment is classed as functional.
The test system of experiment [3] is HeLa. Nature of the experiment: Cytotoxicity against human HeLa cells assessed as decrease in cell viability at 20 uM after 48 hrs by MTT assay relative to control. The experiment is classed as functional.
Experiment [4] has as its system HeLa. Kind of experiment: Cell cycle arrest in human HeLa cells assessed as accumulation at G1 phase at 10 uM after 48 hrs by propidium iodide staining-based flow cytometric analysis (reference value: 66.35%). The experiment is classed as functional. On the technique in general: Flow cytometry measures light scatter and fluorescence of single cells or particles in a stream.

The subject of experiment [5] is HeLa. Nature of the experiment: Cell cycle arrest in human HeLa cells assessed as accumulation at G2 phase at 10 uM after 48 hrs by propidium iodide staining-based flow cytometric analysis (reference value: 4.45%). Format: functional.
For experiment [6], the system named is HeLa. Nature of the experiment: Cell cycle arrest in human HeLa cells assessed as accumulation at S phase at 10 uM after 48 hrs by propidium iodide staining-based flow cytometric analysis (reference value: 29.20%). Format: functional.
Experiment [7] concerns HeLa. Kind of experiment: Cell cycle arrest in human HeLa cells assessed as accumulation at G1 phase at 20 uM after 48 hrs by propidium iodide staining-based flow cytometric analysis (reference value: 66.35%). Format: functional.
Experiment [8] deals with HeLa. Nature of the experiment: Cell cycle arrest in human HeLa cells assessed as accumulation at G2 phase at 20 uM after 48 hrs by propidium iodide staining-based flow cytometric analysis (reference value: 4.45%). Format: functional.
The test system of experiment [9] is HeLa. Kind of experiment: Cell cycle arrest in human HeLa cells assessed as accumulation at S phase at 20 uM after 48 hrs by propidium iodide staining-based flow cytometric analysis (reference value: 29.20%). The experiment is classed as functional.
Experiment [10] concerns HeLa. Kind of experiment: Cell cycle arrest in human HeLa cells assessed as accumulation at G1 phase at 30 uM after 48 hrs by propidium iodide staining-based flow cytometric analysis (reference value: 66.35%). The experiment is classed as functional.
Experiment [11] relates to HeLa. Nature of the experiment: Induction of apoptosis in human HeLa cells assessed as early apoptotic cells at 10 uM after 24 hrs by annexin V/FITC-propidium iodide staining-based flow cytometric method (reference value: 1.76%). Format: functional.
Experiment [12] has as its system HeLa. Nature of the experiment: Induction of apoptosis in human HeLa cells assessed as late apoptotic cells at 10 uM after 24 hrs by annexin V/FITC-propidium iodide staining-based flow cytometric method (reference value: 0.987%). The experiment is classed as functional.
Experiment [13] concerns HeLa. Kind of experiment: Induction of apoptosis in human HeLa cells assessed as necrotic cells at 10 uM after 24 hrs by annexin V/FITC-propidium iodide staining-based flow cytometric method (reference value: 1.81%). The experiment is classed as functional.
Experiment [14] relates to HeLa. Kind of experiment: Induction of apoptosis in human HeLa cells assessed as viable cells at 10 uM after 24 hrs by annexin V/FITC-propidium iodide staining-based flow cytometric method (reference value: 95.4%). Particulars: read-out: Activity. The experiment is classed as functional.
The test system of experiment [15] is HeLa. Kind of experiment: Induction of apoptosis in human HeLa cells assessed as early apoptotic cells at 20 uM after 24 hrs by annexin V/FITC-propidium iodide staining-based flow cytometric method (reference value: 1.76%). The experiment is classed as functional.
In experiment [16] the test system is HeLa. Nature of the experiment: Induction of apoptosis in human HeLa cells assessed as late apoptotic cells at 20 uM after 24 hrs by annexin V/FITC-propidium iodide staining-based flow cytometric method (reference value: 0.987%). The experiment is classed as functional.
Experiment [17] deals with HeLa. Nature of the experiment: Induction of apoptosis in human HeLa cells assessed as necrotic cells at 20 uM after 24 hrs by annexin V/FITC-propidium iodide staining-based flow cytometric method (reference value: 1.81%). Format: functional.
In experiment [18] the test system is HeLa. Nature of the experiment: Induction of apoptosis in human HeLa cells assessed as viable cells at 20 uM after 24 hrs by annexin V/FITC-propidium iodide staining-based flow cytometric method (reference value: 95.4%). To be noted: read-out: Activity. The experiment is classed as functional.
The test system of experiment [19] is HeLa. Nature of the experiment: Induction of apoptosis in human HeLa cells assessed as early apoptotic cells at 30 uM after 24 hrs by annexin V/FITC-propidium iodide staining-based flow cytometric method (reference value: 1.76%). The experiment is classed as functional.
Experiment [20] concerns HeLa. Nature of the experiment: Induction of apoptosis in human HeLa cells assessed as late apoptotic cells at 30 uM after 24 hrs by annexin V/FITC-propidium iodide staining-based flow cytometric method (reference value: 0.987%). The experiment is classed as functional.
Experiment [21] relates to HeLa. Nature of the experiment: Induction of apoptosis in human HeLa cells assessed as necrotic cells at 30 uM after 24 hrs by annexin V/FITC-propidium iodide staining-based flow cytometric method (reference value: 1.81%). Format: functional.
Experiment [22] has as its system HeLa. Kind of experiment: Induction of apoptosis in human HeLa cells assessed as viable cells at 30 uM after 24 hrs by annexin V/FITC-propidium iodide staining-based flow cytometric method (reference value: 95.4%). The experiment is classed as functional. Particulars: read-out: Activity.
Experiment [23] has as its system HeLa. Kind of experiment: Cell cycle arrest in human HeLa cells assessed as accumulation at G2 phase at 30 uM after 48 hrs by propidium iodide staining-based flow cytometric analysis (reference value: 4.45%). The experiment is classed as functional.
The test system of experiment [24] is HeLa. Nature of the experiment: Cell cycle arrest in human HeLa cells assessed as accumulation at S phase at 30 uM after 48 hrs by propidium iodide staining-based flow cytometric analysis (reference value: 29.20%). The experiment is classed as functional.
The test system of experiment [25] is HeLa. Kind of experiment: Upregulation of Bak expression in human HeLa cells at 10 to 30 uM after 24 hrs by Western blot method. The experiment is classed as functional, cell-based.
The test system of experiment [26] is HeLa. Kind of experiment: Upregulation of Bim expression in human HeLa cells at 10 to 30 uM after 24 hrs by Western blot method. Format: functional, cell-based. A general note: A western blot detects proteins with antibodies after separation by electrophoresis.
Experiment [27] deals with HeLa. Nature of the experiment: Downregulation of Bcl-2 expression in human HeLa cells at 10 to 30 uM after 24 hrs by Western blot method. The experiment is classed as functional, cell-based.
Experiment [28] has as its system HeLa. Nature of the experiment: Downregulation of Bcl-xL expression in human HeLa cells at 10 to 30 uM after 24 hrs by Western blot method. Format: functional, cell-based.
The test system of experiment [29] is HepG2. Kind of experiment: Cytotoxicity against human HepG2 cells assessed as decrease in cell viability by MTT assay. The experiment is classed as functional, cell-based.
Experiment [30] concerns MCF7. Kind of experiment: Cytotoxicity against human MCF7 cells assessed as decrease in cell viability by MTT assay. Format: functional, cell-based.
Experiment [31] has as its system P388. Kind of experiment: Cytotoxicity against mouse P388 cells assessed as growth inhibition. Format: functional, cell-based.

Activity calls are given as the source filed them. The calls are words filed in the database; no cut-off is given here. A value given as a limit tells only on which side of the number the result lay.

The values that follow come from ChEMBL document CHEMBL4007501, “Synthesis and antitumor evaluation of 2,3-diarylbenzofuran derivatives on HeLa cells” (Bioorg Med Chem Lett, 2017).

By IC50 is commonly meant the midpoint of a concentration-inhibition curve.

On to `Cc1cccc(-c2oc3cc(O)ccc3c2-c2ccc(O)cc2O)c1`, for which, in experiment [1], the IC50 was 13.4 µM. In addition, the Activity came out at 30% in experiment [2]; 65% in [3]; 70.88% in [4]; 7.56% in experiment [5]; 21.56% in experiment [6]; 63.54% in experiment [7]. Besides, the Activity was found to be 6.31% in experiment [8]; 30.15% in experiment [9]; 61.08% in experiment [10]; 8.05% in [11]; 7.26% in experiment [12]; 1.97% in experiment [13]. In addition, the Activity in experiment [15] is listed as 8.57%; in experiment [16], 18.9%; in experiment [17] it was 3.08%; in [19] it was 10.3%; in experiment [20] it was 36.2%; in [21] it was 11.5%. In addition, the Activity in experiment [23] was determined as 7.1%; in [24], 31.82%. In addition, the viability at 10 µM in [14] was found to be 82.7%. In addition, the viability at 20 µM in [18] was 69.5%. In addition, the viability at 30 µM in [22] is 42.1%. The result in [25], in experiment [26], in [27] and in experiment [28] was Active.

Turning to `COc1ccc(-c2c(-c3ccccc3)oc3cc(OC)ccc23)c(O)c1`, in experiment [1], the IC50 worked out at 28.9 µM.

Turning to `COc1ccc(/C=C/c2cc(OC)c3c(-c4cc(OC)cc(OC)c4)c(-c4ccc(OC)cc4)oc3c2)cc1`, the IC50 in [29] is 240 nM; in experiment [30] it was 850 nM.

As to `Oc1ccc(-c2c(-c3ccccc3)oc3cc(O)ccc23)c(O)c1`, in experiment [1], the IC50 is 29.7 µM.

For `Cc1ccc(-c2oc3cc(O)ccc3c2-c2ccc(O)cc2O)cc1`, the half-maximal inhibitory concentration (IC50) in [1] stood at 29.2 µM.

On to `Oc1ccc(-c2c(-c3ccc4ccccc4c3)oc3cc(O)ccc23)c(O)c1`, for which the IC50 in [1] was 21.2 µM.

In the case of `Oc1ccc(-c2c(-c3ccc(Br)cc3)oc3cc(O)ccc23)c(O)c1`, in experiment [1], the IC50 came out at 36.7 µM.

Regarding `Oc1ccc(-c2c(-c3cccnc3)oc3cc(O)ccc23)c(O)c1`, the IC50 in [1] was 19.9 µM.

Turning to `Oc1ccc(-c2c(-c3ccc(F)cc3)oc3cc(O)ccc23)c(O)c1`, in [1], the IC50 worked out at 28.3 µM.

As to `Oc1ccc(-c2oc3cc(O)ccc3c2-c2ccc(O)cc2O)cc1`, the IC50 in experiment [1] was 32 µM.

For `Oc1ccc(-c2c(-c3ccccc3Br)oc3cc(O)ccc23)c(O)c1`, in experiment [1], the IC50 was over 100 µM.

In the case of `O=C1c2c(O)cc(O)cc2-c2c(-c3ccc(O)cc3)oc3cc(O)cc1c23`, the IC50 in experiment [31] was 13.2 µM.

With `Oc1ccc(-c2c(-c3cccc(Br)c3)oc3cc(O)ccc23)c(O)c1`, the IC50 in experiment [1] amounted to 26.9 µM.

`COc1cccc(-c2oc3cc(O)ccc3c2-c2ccc(O)cc2O)c1`: the IC50 in experiment [1] was found to be 29.9 µM.

In the case of `CC[C@@]1(O)C(=O)OCc2c1cc1n(c2=O)Cc2cc3cc(O)ccc3nc2-1` [HYDROXYCAMPTOTHECIN], the IC50 in [1] stood at 10 µM.

`COc1cccc(-c2c(-c3ccccc3)oc3c(OC)cccc23)c1O`: the IC50 in experiment [1] is 57.8 µM.

As to `Cc1ccccc1-c1oc2cc(O)ccc2c1-c1ccc(O)cc1O`, the IC50 in experiment [1] was found to be 47.5 µM.

Take `COc1ccc(-c2oc3cc(O)ccc3c2-c2ccc(O)cc2O)cc1`: the IC50 in [1] amounted to 13.7 µM.

As for `Oc1ccc(-c2c(-c3ccc(Cl)cc3)oc3cc(O)ccc23)c(O)c1`, the half-maximal inhibitory concentration (IC50) in experiment [1] is 32.7 µM.
